Legend:
Assay type in all cases: cell-based
[1] = tested on: human dermal fibroblasts from LHON patients; assay: Rescue of fibroblasts from LHON patients from oxidative stress; conditions: Fibroblast, LHON cells GM03858, screen similar to Example 1, read-out: protection against LHON, EC50
[2] = tested on: human dermal fibroblasts from Huntington's patients; assay: Rescue of fibroblasts from Huntington's patients from oxidative stress; conditions: Fibroblast, Huntington's cells GM 04281, screen similar to Example 1, read-out: protection against Huntington's, EC50
[3] = tested on: Human dermal fibroblasts from Friedreich's Ataxia patients; assay: Rescue of BSO-stressed FRDA fibroblasts (Calcein AM viability); conditions: FRDA fibroblasts GM04078, 1 mM BSO, 48 h, read-out: protection against FRDA, EC50
Procedure: Test samples and solvent controls were tested for their ability to rescue FRDA fibroblasts stressed by addition of L-buthionine-(S,R)-sulfoximine (BSO), as described in Jauslin et al., Hum. Mol. Genet. 11(24):3055 (2002), Jauslin et al., FASEB J. 17:1972-4 (2003), and International Patent Application WO 2004/003565. […] This specific BSO-mediated cell death can be prevented by administration of antioxidants or molecules involved in the antioxidant pathway, such as alpha-tocopherol, selenium, or small molecule glutathione peroxidase mimetics. However, antioxidants differ in their potency, i.e. the concentration at which they are able to rescue BSO-stressed FRDA fibroblasts.
MEM (a medium enriched in amino acids and vitamins, catalog no. 1-31F24-I) and Medium 199 (M199, catalog no. 1-21F22-I) with Earle's Balanced Salts, without phenol red, were purchased from Bioconcept. Fetal Calf Serum was obtained from PAA Laboratories. Basic fibroblast growth factor and epidermal growth factor were purchased from PeproTech. 2,3,5-trimethyl-6-(12-hydroxy-5,10-dodecadiynyl)-1,4-benzoquinone, penicillin-streptomycin-glutamine mix, L-buthionine (S,R)-sulfoximine, and insulin from bovine pancreas were purchased from Sigma. Calcein AM was purchased from Molecular Probes. […]

[4] = tested on: human dermal fibroblasts from Parkinson's Disease patients; assay: Rescue of fibroblasts from Parkinson's Disease patients from oxidative stress; conditions: Fibroblast, PD cells AG20439, screen similar to Example 1, read-out: protection against Parkinson's Disease, EC50

CC1=C(C)C(=O)C(CCCCC#CCCCC#CCO)=C(C)C1=O [2,3,5-trimethyl-6-(12-hydroxy-5,10-dodecadiynyl)-1,4-benzoquinone]
EC50 [1]: < 0.1 µM | EC50 [2]: < 0.05 µM | EC50 [3]: < 0.1 µM | EC50 [4]: < 0.1 µM

Source: US9629815B2, “Benzoquinone derivatives for treating oxidative stress disorders” (Edison Pharmaceuticals, Inc., priority 2012, dated 2017)
